From patent publication US10683334B2 (INDIANA UNIVERSITY RESEARCH AND TECHNOLOGY CORPORATION, priority 2016, dated 2020)
Square brackets hold non-standard residues; d marks the D form. Peptide text beside a SMILES is read from it. 3Pal = N[C@@H](Cc1cccnc1)C(=O)O; Aib = CC(C)(N)C(=O)O

Tests used:
physchem = details: for solubility at 1 h: pH 7.4
Procedure: 1 or 5 mg of pre-lyophilized peptide in 2 mL Eppendorf tube was treated with 200-400 uL of phosphate buffer (PBS: 50 mM sodium phosphate, 150 mM of sodium chloride, pH7.4). Samples were then vortexed and sonicated for 10 min then equilibrated at RT for 1H, and then centrifuged at 10 krpms for 10 min Concentration of the peptides in obtained supernatant was determined by measuring UV absorbance at λ=280 nm. […] Concentration in aliquots was reassessed as previously with UV absorbance. Change in peptide concentration was evaluated after 48 h and 7 days of storage at 4° C.

glucagon receptor = glucagon receptor (Homo sapiens, UniProt P47871); assay: Luciferase-based glucagon assay (cAMP reporter, HEK293 cells); details: for EC50: read-out: EC50 [nM] (SDV), SDV in brackets; for EC50 / in vitro efficacy / potency (in words): luciferase-based glucagon assay; for % bioactivity of GCG: relative to native glucagon
Chain of glucagon receptor (P47871 26-477): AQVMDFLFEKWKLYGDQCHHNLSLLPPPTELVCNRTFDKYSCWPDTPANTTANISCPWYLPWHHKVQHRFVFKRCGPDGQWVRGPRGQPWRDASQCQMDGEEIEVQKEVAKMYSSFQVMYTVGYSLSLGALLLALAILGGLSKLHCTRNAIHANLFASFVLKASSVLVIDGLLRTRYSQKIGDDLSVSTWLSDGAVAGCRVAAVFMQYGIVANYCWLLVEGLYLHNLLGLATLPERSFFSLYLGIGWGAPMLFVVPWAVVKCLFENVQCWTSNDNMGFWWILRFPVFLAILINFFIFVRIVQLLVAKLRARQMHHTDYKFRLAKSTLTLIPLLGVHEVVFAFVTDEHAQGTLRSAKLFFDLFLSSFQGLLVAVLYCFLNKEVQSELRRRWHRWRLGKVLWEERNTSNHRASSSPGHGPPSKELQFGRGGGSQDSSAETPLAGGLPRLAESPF
Procedure: At the end of the incubation 100 microliters of LucLite luminescence substrate reagent (Perkin-Elmer, Wellesley, Mass.) were added to each well. […] The luminescent light output indicates activation of the luciferase reporter gene, which in turn is a measure of the activation of the receptor.

Row | Structure (SMILES) | solubility at 1 h (physchem) [µg/mL] | EC50 (glucagon receptor) [nM] | % bioactivity of GCG (glucagon receptor) [%] | solubility (physchem; pH 7) [µg/mL] | in vitro efficacy / potency (in words) (glucagon receptor)
1 | CSCC[C@H](NC(=O)[C@H](CC(C)C)NC(=O)[C@H](Cc1c[nH]c2ccccc12)NC(=O)[C@H](CCC(N)=O)NC(=O)[C@@H](NC(=O)[C@H](Cc1ccccc1)NC(=O)[C@H](CC(=O)O)NC(=O)[C@H](CCC(N)=O)NC(=O)[C@H](C)NC(=O)[C@H](CCCNC(=N)N)NC(=O)[C@H](CCCNC(=N)N)NC(=O)C(C)(C)NC(=O)[C@H](CC(=O)O)NC(=O)[C@H](CC(C)C)NC(=O)[C@H](Cc1ccc(O)cc1)NC(=O)[C@H](CCCCN)NC(=O)[C@H](CO)NC(=O)[C@H](Cc1ccc(O)cc1)NC(=O)[C@H](CC(=O)O)NC(=O)[C@H](CO)NC(=O)[C@@H](NC(=O)[C@H](Cc1cccnc1)NC(=O)[C@@H](NC(=O)CNC(=O)[C@H](CCC(N)=O)NC(=O)[C@H](CO)NC(=O)[C@@H](N)Cc1c[nH]cn1)[C@@H](C)O)[C@@H](C)O)C(C)C)C(=O)N[C@@H](CC(N)=O)C(=O)N[C@H](C(=O)O)[C@@H](C)O [Compound 3, HSQGTXTSDYSKYLDZRRAQDFVQWLMNT] | > 1000 | 0.017 | 119 | – | –
2 | CSCC[C@H](NC(=O)[C@H](CC(C)C)NC(=O)[C@H](Cc1c[nH]c2ccccc12)NC(=O)[C@H](CCC(N)=O)NC(=O)[C@@H](NC(=O)[C@H](Cc1ccccc1)NC(=O)[C@H](CC(=O)O)NC(=O)[C@H](CCC(N)=O)NC(=O)[C@H](C)NC(=O)[C@H](CCCNC(=N)N)NC(=O)[C@H](CCCNC(=N)N)NC(=O)C(C)(C)NC(=O)[C@H](CC(=O)O)NC(=O)[C@H](CC(C)C)NC(=O)[C@H](Cc1ccc(O)cc1)NC(=O)[C@H](CCCCN)NC(=O)[C@H](CO)NC(=O)[C@H](Cc1cccnc1)NC(=O)[C@H](CC(=O)O)NC(=O)[C@H](CO)NC(=O)[C@@H](NC(=O)[C@H](Cc1ccccc1)NC(=O)[C@@H](NC(=O)CNC(=O)[C@H](CCC(N)=O)NC(=O)[C@H](CO)NC(=O)[C@@H](N)Cc1c[nH]cn1)[C@@H](C)O)[C@@H](C)O)C(C)C)C(=O)N[C@@H](CC(N)=O)C(=O)N[C@H](C(=O)O)[C@@H](C)O [Compound 4, HSQGTFTSDXSKYLDZRRAQDFVQWLMNT] | > 1000 | 0.0268 | 76 | – | –
3 | CSCC[C@H](NC(=O)[C@H](CC(C)C)NC(=O)[C@H](Cc1c[nH]c2ccccc12)NC(=O)[C@H](CCC(N)=O)NC(=O)[C@@H](NC(=O)[C@H](Cc1ccccc1)NC(=O)[C@H](CC(=O)O)NC(=O)[C@H](CCC(N)=O)NC(=O)[C@H](C)NC(=O)[C@H](CCCNC(=N)N)NC(=O)[C@H](CCCNC(=N)N)NC(=O)C(C)(C)NC(=O)[C@H](CC(=O)O)NC(=O)[C@H](CC(C)C)NC(=O)[C@H](Cc1cccnc1)NC(=O)[C@H](CCCCN)NC(=O)[C@H](CO)NC(=O)[C@H](Cc1ccc(O)cc1)NC(=O)[C@H](CC(=O)O)NC(=O)[C@H](CO)NC(=O)[C@@H](NC(=O)[C@H](Cc1ccccc1)NC(=O)[C@@H](NC(=O)CNC(=O)[C@H](CCC(N)=O)NC(=O)[C@H](CO)NC(=O)[C@@H](N)Cc1c[nH]cn1)[C@@H](C)O)[C@@H](C)O)C(C)C)C(=O)N[C@@H](CC(N)=O)C(=O)N[C@H](C(=O)O)[C@@H](C)O [Compound 5, HSQGTFTSDYSKXLDZRRAQDFVQWLMNT] | > 1000 | 0.0379 | 54 | – | –
4 | CSCC[C@H](NC(=O)[C@H](CC(C)C)NC(=O)[C@H](Cc1c[nH]c2ccccc12)NC(=O)[C@H](CCC(N)=O)NC(=O)[C@@H](NC(=O)[C@H](Cc1ccccc1)NC(=O)[C@H](CC(=O)O)NC(=O)[C@H](CCC(N)=O)NC(=O)[C@H](C)NC(=O)[C@H](CCCNC(=N)N)NC(=O)[C@H](CCCNC(=N)N)NC(=O)C(C)(C)NC(=O)[C@H](CC(=O)O)NC(=O)[C@H](CC(C)C)NC(=O)[C@H](Cc1ccncc1)NC(=O)[C@H](CCCCN)NC(=O)[C@H](CO)NC(=O)[C@H](Cc1ccc(O)cc1)NC(=O)[C@H](CC(=O)O)NC(=O)[C@H](CO)NC(=O)[C@@H](NC(=O)[C@H](Cc1ccccc1)NC(=O)[C@@H](NC(=O)CNC(=O)[C@H](CCC(N)=O)NC(=O)[C@H](CO)NC(=O)[C@@H](N)Cc1c[nH]cn1)[C@@H](C)O)[C@@H](C)O)C(C)C)C(=O)N[C@@H](CC(N)=O)C(=O)N[C@H](C(=O)O)[C@@H](C)O [Compound 6, HSQGTFTSDYSKULDZRRAQDFVQWLMNT] | > 1000 | 0.0339 | 60 | – | –
5 | CSCC[C@H](NC(=O)[C@H](CC(C)C)NC(=O)[C@H](Cc1c[nH]c2ccccc12)NC(=O)[C@H](CCC(N)=O)NC(=O)[C@@H](NC(=O)[C@H](Cc1ccccc1)NC(=O)[C@H](CC(=O)O)NC(=O)[C@H](CCC(N)=O)NC(=O)[C@H](C)NC(=O)[C@H](CCCNC(=N)N)NC(=O)[C@H](CCCNC(=N)N)NC(=O)C(C)(C)NC(=O)[C@H](CC(=O)O)NC(=O)[C@H](CC(C)C)NC(=O)[C@H](Cc1cccnc1)NC(=O)[C@H](CCCCN)NC(=O)[C@H](CO)NC(=O)[C@H](Cc1cccnc1)NC(=O)[C@H](CC(=O)O)NC(=O)[C@H](CO)NC(=O)[C@@H](NC(=O)[C@H](Cc1ccccc1)NC(=O)[C@@H](NC(=O)CNC(=O)[C@H](CCC(N)=O)NC(=O)[C@H](CO)NC(=O)[C@@H](N)Cc1c[nH]cn1)[C@@H](C)O)[C@@H](C)O)C(C)C)C(=O)N[C@@H](CC(N)=O)C(=O)N[C@H](C(=O)O)[C@@H](C)O [Compound 7, HSQGTFTSDXSKXLDZRRAQDFVQWLMNT] | > 10000 | 0.0359 | 57 | > 10000 | fully potent
6 | CSCC[C@H](NC(=O)[C@H](CC(C)C)NC(=O)[C@H](Cc1c[nH]c2ccccc12)NC(=O)[C@H](CCC(N)=O)NC(=O)[C@@H](NC(=O)[C@H](Cc1ccccc1)NC(=O)[C@H](CC(=O)O)NC(=O)[C@H](CCC(N)=O)NC(=O)[C@H](C)NC(=O)[C@H](CCCNC(=N)N)NC(=O)[C@H](CCCNC(=N)N)NC(=O)C(C)(C)NC(=O)[C@H](CC(=O)O)NC(=O)[C@H](CC(C)C)NC(=O)[C@H](Cc1ccncc1)NC(=O)[C@H](CCCCN)NC(=O)[C@H](CO)NC(=O)[C@H](Cc1ccncc1)NC(=O)[C@H](CC(=O)O)NC(=O)[C@H](CO)NC(=O)[C@@H](NC(=O)[C@H](Cc1ccccc1)NC(=O)[C@@H](NC(=O)CNC(=O)[C@H](CCC(N)=O)NC(=O)[C@H](CO)NC(=O)[C@@H](N)Cc1c[nH]cn1)[C@@H](C)O)[C@@H](C)O)C(C)C)C(=O)N[C@@H](CC(N)=O)C(=O)N[C@H](C(=O)O)[C@@H](C)O [Compound 8, HSQGTFTSDUSKULDZRRAQDFVQWLMNT] | > 10000 | 0.0309 | 66 | – | –
7 | CSCC[C@H](NC(=O)[C@H](CC(C)C)NC(=O)[C@H](Cc1c[nH]c2ccccc12)NC(=O)[C@H](CCC(N)=O)NC(=O)[C@@H](NC(=O)[C@H](Cc1ccccc1)NC(=O)[C@H](CC(=O)O)NC(=O)[C@H](CCC(N)=O)NC(=O)[C@H](C)NC(=O)[C@H](CCCNC(=N)N)NC(=O)[C@H](CCCNC(=N)N)NC(=O)C(C)(C)NC(=O)[C@H](CC(=O)O)NC(=O)[C@H](CC(C)C)NC(=O)[C@H](Cc1ccncc1)NC(=O)[C@H](CCCCN)NC(=O)[C@H](CO)NC(=O)[C@H](Cc1ccncc1)NC(=O)[C@H](CC(=O)O)NC(=O)[C@H](CO)NC(=O)[C@@H](NC(=O)[C@H](Cc1ccncc1)NC(=O)[C@@H](NC(=O)CNC(=O)[C@H](CCC(N)=O)NC(=O)[C@H](CO)NC(=O)[C@@H](N)Cc1c[nH]cn1)[C@@H](C)O)[C@@H](C)O)C(C)C)C(=O)N[C@@H](CC(N)=O)C(=O)N[C@H](C(=O)O)[C@@H](C)O [Compound 10, HSQGTUTSDUSKULDZRRAQDFVQWLMNT] | > 10000 | 0.0843 | 24 | – | –
8 | CSCC[C@H](NC(=O)[C@H](CC(C)C)NC(=O)[C@H](Cc1c[nH]c2ccccc12)NC(=O)[C@H](CCC(N)=O)NC(=O)[C@@H](NC(=O)[C@H](Cc1cccnc1)NC(=O)[C@H](CC(=O)O)NC(=O)[C@H](CCC(N)=O)NC(=O)[C@H](C)NC(=O)[C@H](CCCNC(=N)N)NC(=O)[C@H](CCCNC(=N)N)NC(=O)C(C)(C)NC(=O)[C@H](CC(=O)O)NC(=O)[C@H](CC(C)C)NC(=O)[C@H](Cc1cccnc1)NC(=O)[C@H](CCCCN)NC(=O)[C@H](CO)NC(=O)[C@H](Cc1cccnc1)NC(=O)[C@H](CC(=O)O)NC(=O)[C@H](CO)NC(=O)[C@@H](NC(=O)[C@H](Cc1cccnc1)NC(=O)[C@@H](NC(=O)CNC(=O)[C@H](CCC(N)=O)NC(=O)[C@H](CO)NC(=O)[C@@H](N)Cc1cnc[nH]1)[C@@H](C)O)[C@@H](C)O)C(C)C)C(=O)N[C@@H](CC(N)=O)C(=O)N[C@H](C(=O)O)[C@@H](C)O [Compound 11, HSQGTXTSDXSKXLDZRRAQDXVQWLMNT] (H-HSQGT[3Pal]TSD[3Pal]SK[3Pal]LD[Aib]RRAQD[3Pal]VQWLMNT-OH) | > 10000 | – | – | – | –
9 | CSCC[C@H](NC(=O)[C@H](CC(C)C)NC(=O)[C@H](Cc1c[nH]c2ccccc12)NC(=O)[C@H](CCC(N)=O)NC(=O)[C@@H](NC(=O)[C@H](Cc1cccnc1)NC(=O)[C@H](CC(=O)O)NC(=O)[C@H](CCC(N)=O)NC(=O)[C@H](C)NC(=O)[C@H](CCCNC(=N)N)NC(=O)[C@H](CCCNC(=N)N)NC(=O)C(C)(C)NC(=O)[C@H](CC(=O)O)NC(=O)[C@H](CC(C)C)NC(=O)[C@H](Cc1cccnc1)NC(=O)[C@H](CCCCN)NC(=O)[C@H](CO)NC(=O)[C@H](Cc1cccnc1)NC(=O)[C@H](CC(=O)O)NC(=O)[C@H](CO)NC(=O)[C@@H](NC(=O)[C@H](Cc1cccnc1)NC(=O)[C@@H](NC(=O)CNC(=O)[C@H](CCC(N)=O)NC(=O)[C@H](CO)NC(=O)[C@@H](N)Cc1c[nH]cn1)[C@@H](C)O)[C@@H](C)O)C(C)C)C(=O)N[C@@H](CC(N)=O)C(=O)N[C@H](C(=O)O)[C@@H](C)O [Compound 11, HSQGTXTSDXSKXLDZRRAQDXVQWLMNT] (H-HSQGT[3Pal]TSD[3Pal]SK[3Pal]LD[Aib]RRAQD[3Pal]VQWLMNT-OH; N-terminus and C-terminus assumed) | – | 2.33 | 1 | – | lower potency
